Source: US5866346A (priority 1997, dated 1999)
Read-outs that look alike come from different tables or passages of the source.

Legend:
[1] = molecular target: T1, XOR1 (rat opioid receptor-like novel receptor) (Rattus norvegicus, UniProt P35370); assay: Inhibition of forskolin-stimulated cyclic AMP increase in cells transiently transfected with XOR1; type: cell-based; conditions: 5 μM ligand, 10 μM forskolin
T1 construct: expressed in transfected cells; host or cells: CHO-K1 and HEK-293 cells, transient calcium phosphate transfection
T1 sequence (P35370 whole entry): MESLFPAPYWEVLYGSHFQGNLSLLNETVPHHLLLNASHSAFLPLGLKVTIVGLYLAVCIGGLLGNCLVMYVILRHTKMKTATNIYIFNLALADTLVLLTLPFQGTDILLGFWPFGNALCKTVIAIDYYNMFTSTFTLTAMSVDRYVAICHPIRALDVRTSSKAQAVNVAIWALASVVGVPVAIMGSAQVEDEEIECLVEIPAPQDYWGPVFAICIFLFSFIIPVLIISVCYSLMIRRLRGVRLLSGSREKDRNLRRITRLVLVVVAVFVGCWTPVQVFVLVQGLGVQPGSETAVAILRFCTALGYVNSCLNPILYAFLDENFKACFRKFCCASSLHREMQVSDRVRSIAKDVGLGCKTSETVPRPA
Method: FIGS. 4A and 4B. Inhibition of forskolin-stimulated cyclic AMP increase by dyn A-(1-13). CHO-K1 or HEK-293 cells transiently transfected with the XOR1 clone were treated with 10 μM forskolin with or without 5 μM dyn A-(1-13). The control cells were transfected with the plasmid vector and underwent the same treatment. Intracellular cyclic AMP content was determined using a radioimmunoassay kit (DuPont/NEN). Data are shown as mean ± S.E. (n=2). * indicates a significant-difference from the forskolin-only treated cells (Student's t-test, p<0.01).
Cell transfection and cyclic AMP assay--The CHO-K1 and HEK-293 cells were transiently transfected with either XOR1 (rat opioid receptor-like novel receptor) cDNA in pRc/CMV (Invitrogen) or vector only (as control) by calcium phosphate method as described by Chen et al., Mol. Cell Biol. 7:2745-2752 (1987). Three days after transfection, cells were harvested by trypsin treatment, washed and resuspended in serum-free medium. Cells were treated with ligands in the presence of 10 μM forskolin and 1 mM 3-iosbutyl-1-methylxanthine at 37° C. for 20 min. The reaction was terminated by adding 1/3 volume of 0.25M HCl. The mixture was boiled for 5 min and centrifuged at 14,000 g for 10 min. […] The cAMP in cells was determined by the nonacetylated method using the radioimmunoassay kit (DuPont/NEN) according to the manufacturer's instructions.

[2] = molecular target: kappa opioid receptor (KOR) (Rattus norvegicus, UniProt P34975); conditions: cited from earlier work
Chain of kappa opioid receptor (KOR) (Rattus norvegicus, UniProt P34975) (P34975 whole entry): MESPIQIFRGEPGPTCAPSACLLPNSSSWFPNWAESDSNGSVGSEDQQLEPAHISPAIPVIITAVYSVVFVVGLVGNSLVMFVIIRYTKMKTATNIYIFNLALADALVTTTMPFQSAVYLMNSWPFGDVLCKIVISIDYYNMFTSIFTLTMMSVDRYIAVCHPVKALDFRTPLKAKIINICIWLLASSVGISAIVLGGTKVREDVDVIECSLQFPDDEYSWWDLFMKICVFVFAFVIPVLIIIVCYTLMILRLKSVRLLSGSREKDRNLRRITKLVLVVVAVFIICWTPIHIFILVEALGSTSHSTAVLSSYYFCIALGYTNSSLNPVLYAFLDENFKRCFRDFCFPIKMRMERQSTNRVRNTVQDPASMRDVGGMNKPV

[3] = molecular target: kappa opioid receptor (KOR) (Cavia porcellus, UniProt P41144); conditions: read-out: KOR (Ki) Guinea pig (36); cited from earlier work
Chain of kappa opioid receptor (KOR) (Cavia porcellus, UniProt P41144) (P41144 whole entry): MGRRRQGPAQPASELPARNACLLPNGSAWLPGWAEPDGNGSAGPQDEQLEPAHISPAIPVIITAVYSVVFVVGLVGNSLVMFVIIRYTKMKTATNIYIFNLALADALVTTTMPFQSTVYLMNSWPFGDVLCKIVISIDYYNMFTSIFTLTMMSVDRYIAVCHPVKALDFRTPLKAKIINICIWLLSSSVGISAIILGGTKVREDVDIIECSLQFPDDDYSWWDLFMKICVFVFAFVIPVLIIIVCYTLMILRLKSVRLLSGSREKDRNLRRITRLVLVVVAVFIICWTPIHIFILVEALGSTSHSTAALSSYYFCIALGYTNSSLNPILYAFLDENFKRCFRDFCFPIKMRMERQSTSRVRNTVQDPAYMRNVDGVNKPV

SMILES | inhibition of forskolin-stimulated cAMP increase ([1]; CHO-K1 cells) [%] | inhibition of forskolin-stimulated cAMP increase ([1]; HEK-293 cells) [%] | Ki ([2]; read-out: KOR (Ki) Rat (34)) [nM] | Ki [3] [nM] | Ki ([2]; read-out: KOR (Ki) Rat (27)) [nM] | Ki ([2]; read-out: KOR (Ki) Rat (33)) [nM]
CC[C@H](C)[C@H](NC(=O)[C@H](CCCNC(=N)N)NC(=O)[C@H](CCCNC(=N)N)NC(=O)[C@H](CC(C)C)NC(=O)[C@H](Cc1ccccc1)NC(=O)CNC(=O)CNC(=O)[C@@H](N)Cc1ccc(O)cc1)C(=O)N[C@@H](CCCNC(=N)N)C(=O)N1CCC[C@H]1C(=O)N[C@@H](CCCCN)C(=O)N[C@@H](CC(C)C)C(=O)N[C@@H](CCCCN)C(=O)O [dyn A-(1-13), dynorphin A (1-13)] | 51 | 35 | 0.12 | 0.71 | – | –
CC[C@H](C)[C@H](NC(=O)[C@H](CCCNC(=N)N)NC(=O)[C@H](CCCNC(=N)N)NC(=O)[C@H](CC(C)C)NC(=O)[C@H](Cc1ccccc1)NC(=O)CNC(=O)CNC(=O)[C@@H](N)Cc1ccc(O)cc1)C(=O)N[C@@H](CCCNC(=N)N)C(=O)N1CCC[C@H]1C(=O)N[C@@H](CCCCN)C(=O)N[C@@H](CC(C)C)C(=O)N[C@@H](CCCCN)C(=O)N[C@@H](Cc1c[nH]c2ccccc12)C(=O)N[C@@H](CC(=O)O)C(=O)N[C@@H](CC(N)=O)C(=O)N[C@@H](CCC(N)=O)C(=O)O [dyn A, dynorphin A] | – | – | 0.11 | 0.58 | 0.15 | 0.05
